Assay results: paper PMC6106931 (Alzheimer's Research & Therapy, 2018)
Entries after “also recorded” stand apart in the source; their conditions may differ. Where two headings read alike, the source gives them in different places.

Tests used:
t-tau/p-tau181p = assay: CSF total tau / p-tau181P, Study ALZ1005; type: in vivo, human; details: for CSF P-tau percent change from baseline at day 28, Mean (SD) / CSF P-tau percent change from baseline at day 28, Median (range) / CSF total tau percent change from baseline at day 28, Mean (SD) / CSF total tau percent change from baseline at day 28, Median (range): Caucasian early AD
Method: In addition, exploratory measurements of plasma/CSF levels of APP fragments (sAPPα, sAPPβ, and total sAPP) and CSF levels of BACE1, t-tau, and p-tau were performed.
Baseline Aβ1–42, p-tau181P, and t-tau concentrations were measured using Innotest® Phospho-TAU181P, Innotest® hTAU Ag, and Innotest® β-AMYLOID1–42 (Innogenetics/Fujirebio, Ghent, Belgium) and the Luminex analytical platform (Luminex Corp., Austin, TX, USA). CSF samples from both the ALZ1005 (Caucasian) and ALZ1008 (Japanese) studies were analyzed in the same laboratory setting using the same assays and analytical platform. Diagnostic threshold CSF concentrations for AD vs. normal controls for Aβ1–42 were applied to the current sample set to judge the likelihood of having cerebral amyloid plaque deposition.
Treatment effect on plasma/CSF Aβ as compared with placebo was estimated by 95% CI for percent changes from baseline in each of the Aβ fragments (Aβ1–37, Aβ1–38, Aβ1–40, and Aβ1–42) in CSF and plasma. For primary and secondary biomarkers, day 28% changes from baseline, the least squares (LS) means (converted to original units), and treatment differences relative to placebo (with corresponding 95% CI) were analyzed on the basis of an analysis of covariance model that included treatment group and baseline score as a covariate. Day 28 changes from baseline in CSF tau/p-tau were summarized using descriptive statistics. Data were summarized and plotted by dose group, and exposure-response relationship was explored. […] Variability of predose baseline parameters vs. day 28 individual CSF ratios of Aβ1–42 to Aβ1–40 across treatment groups was explored graphically. Analyses were performed on individual populations of preclinical AD and MCI due to AD as well as the combined population of early AD.

[1] = Plasma and CSF pharmacokinetics, population PK modeling, Study ALZ1005; type: in vivo, human; details: for Kp at 28 day: CSF / free plasma; for concentration at 28 day: CSF, read-out: C28d, CSF concentration at Day 28, Mean (SD); for AUC: read-out: Plasma AUCτ, Day 28, Mean (SD); for Cmax: read-out: Plasma Cmax, Day 28, Mean (SD)
Method: CSF and plasma collection and processing, as well as apolipoprotein E (APOE) ε4 genotyping, are described in Additional file 2. Population PK modeling from sparse PK samples collected in the ALZ1005 Study was performed to derive individual steady-state maximum plasma concentration [Cmax] and area under the concentration-time profile during the dosing interval at steady state [AUC from 0 to 24 hours postdosing]. This model was also used to derive PK/PD simulations of CSF Aβ1–40 reduction (described in “Pharmacokinetic/pharmacodynamic relationship” section below).
The lower limit of quantification (LLOQ) was 1 ng/ml.

[2] = Cognitive evaluations (CANTAB Elect, RBANS, CDR-SB, MMSE), Study ALZ1005; type: in vivo, human; details: Caucasian early AD
Method: When multiple assessments were performed at the same visit by independent raters, the sequential order of testing was RBANS first followed by CDR, MMSE, and CANTAB Elect, and if raters for RBANS and CDR were the same, then CDR was performed prior to RBANS.
The CDR assessed three domains of cognition (memory, orientation, judgment/problem solving) and three domains of function (community affairs, home/hobbies, personal care) using structured interviews of both the patient and a companion/informant by a trained rater and scored using a standard methodology. CDR global score for the six domains range from 0 to 3 with 0 indicating no dementia and 3 indicating severe dementia. It can be summed to obtain CDR Sum of Boxes (CDR-SB) with scores ranging from 0 to 18. CDR and CDR-Japanese version global score has been used in AD trials as a global measure of disease progression.
RBANS battery includes 12 subsets that measure 5 indices; the Digit Span and Coding subtests measure Attention, the Picture Naming and Semantic Fluency subtests measure Language, the Figure Copy and Line Orientation subtests measure Visuospatial/Construction, List Learning and Store Memory subtests measure Immediate Memory, and List Recall, List Recognition, Store Memory and Figure Recall measure Delayed Memory. RBANS has been used in multinational AD clinical trials.
The CANTAB test battery consists of paired associated learning (PAL), reaction time (RTI) and spatial working memory (SWM). Performance in this test battery is associated with pathologic Aβ and tau levels and enables identification of individuals with memory impairment who are likely to develop AD and those with questionable dementia. Scores have a sensitivity of 0.83 and a specificity of 0.82 when differentiating individuals with MCI from healthy older adults. The PAL test assesses visuospatial episodic memory and the outcome measure is the adjusted number of errors committed at the 6-pattern stage. The test-retest reliability for PAL is 0.75 in MCI and 0.85 in AD. The RTI test assesses psychomotor processing speed. […] The test-retest reliability is 0.68 in MCI and 0.72 in AD. The SWM test assesses working memory and executive function. The outcome measure is the number errors made during performing of the task. The test-retest reliability is 0.55 in MCI and 0.68 in AD.
MMSE rates subjects on orientation, registration, attention, calculation, recall and language. The maximum score is 30, and lower the score the greater the impairment.

[3] = Clinical safety, Study ALZ1008; details: Japanese preclinical AD
Method: Safety and tolerability were assessed during the study by recording adverse events (AEs), clinically significant abnormalities, clinical laboratory tests, ECG, and vital signs and by performing physical, neurological, and MRI examinations. All enrolled participants were included in the safety analysis population.

[4] = human, plasma, oral, Caucasian early AD, 10 mg q.d., population PK modeling
[5] = human, plasma, oral, Caucasian early AD, 50 mg q.d., population PK modeling

## C[C@@]1(c2cc(NC(=O)c3ccc(C#N)cn3)ccc2F)C=CSC(N)=N1 [atabecestat]
t-tau/p-tau181p; 10-mg and 50-mg doses, Caucasian and Japanese
  changes in CSF t-tau or p-tau over 4-week treatment: no relevant changes
t-tau/p-tau181p; 10 mg daily
  CSF P-tau percent change from baseline at day 28, Mean (SD): 3.56 (4.797) %
  CSF P-tau percent change from baseline at day 28, Median (range): 3.45 (− 4.6; 11.5) %
  CSF total tau percent change from baseline at day 28, Mean (SD): 4.18 (7.629) %
  CSF total tau percent change from baseline at day 28, Median (range): 6.76 (− 11.2; 16.1) %
t-tau/p-tau181p; 50 mg daily
  CSF P-tau percent change from baseline at day 28, Mean (SD): 7.36 (3.648) %
  CSF P-tau percent change from baseline at day 28, Median (range): 7.42 (1.6; 16.7) %
  CSF total tau percent change from baseline at day 28, Mean (SD): 8.02 (6.557) %
  CSF total tau percent change from baseline at day 28, Median (range): 7.64 (− 4.5; 23.4) %
[1]; Caucasian and Japanese early AD
  CNS penetrance of unbound drug: high central nervous system penetrance of unbound drug; also recorded: high CNS penetrance of unbound drug
[1]; Caucasian early AD (preclinical AD and MCI due to AD), 10 and 50 mg q.d., population PK estimate, intersubject CV 30%
  CL/F: 8.32 L/h
[1]; Caucasian early AD, 10 mg q.d.
  DN AUCτ (dose normalization to 5 mg), Day 28, Mean (SD): 616 (185) ng.h/mL
  DN C28d (CSF, dose normalization to 5 mg), Mean (SD): 1.54 (0.52) ng/mL
  DN Cmax (dose normalization to 5 mg), Day 28, Mean (SD): 55 (10) ng/mL
[1]; Caucasian early AD, 50 mg q.d.
  DN AUCτ (dose normalization to 5 mg), Day 28, Mean (SD): 620 (171) ng.h/mL
  DN C28d (CSF, dose normalization to 5 mg), Mean (SD): 1.51 (0.71) ng/mL
[1]; both populations, 10 and 50 mg
  PK linearity: linear PK
[1]; human, oral, Caucasian early AD, 10 mg q.d., simulated plasma concentration, free fraction 6%, read-out: Ratio C28d (CSF)/free plasma, Mean (SD)
  Kp at 28 day: 0.789
[1]; human, oral, Caucasian early AD, 50 mg q.d., simulated plasma concentration, free fraction 6%, read-out: Ratio C28d (CSF)/free plasma, Mean (SD)
  Kp at 28 day: 0.892
[1]; human, oral, Caucasian early AD, 10-mg and 50-mg groups together, day 28
  Kp at 28 day: 0.84
[1]; human, oral, Caucasian early AD, 10 mg q.d.
  concentration at 28 day: 3.08 ng/mL
[1]; human, oral, Caucasian early AD, 50 mg q.d.
  concentration at 28 day: 15.1 ng/mL
[1]; [4]
  Tmax at 28 day: 1.7 h
  AUC: 1230 ng·h/mL
  Cmax: 110 ng/mL
[1]; [5]
  AUC: 6200 ng·h/mL
  Cmax: 550 ng/mL
[1]; human, plasma, oral, Caucasian early AD, 50 mg q.d., population PK modeling, read-out: Plasma Tmax, Day 28
  Tmax: 1.8 h
[2]; 10 mg
  CDR-SB Total Score, change from baseline at day 28, Diff. of LS Means (SE) vs placebo: ^-0.07 (0.305)
  CDR-SB Total Score, change from baseline at day 28, LS Mean: ^-0.04
  CDR-SB Total Score, change from baseline at day 28, Mean (SD): ^-0.04 (0.660)
  MMSE Total Score, change from baseline at day 28, Diff. of LS Means (SE) vs placebo: ^-1.33 (0.906)
  MMSE Total Score, change from baseline at day 28, LS Mean: ^-0.76
  MMSE Total Score, change from baseline at day 28, Mean (SD): ^-0.40 (2.971)
  PAL Total Errors 6 Shapes Adjusted, change from baseline at day 28, Diff. of LS Means (SE) vs placebo: ^-1.14 (2.086)
  PAL Total Errors 6 Shapes Adjusted, change from baseline at day 28, LS Mean: ^0.87
  RBANS Total Scale, change from baseline at day 28, Diff. of LS Means (SE) vs placebo: ^-4.39 (2.762)
  RBANS Total Scale, change from baseline at day 28, LS Mean: ^0.07
  RBANS Total Scale, change from baseline at day 28, Mean (SD): ^0.33 (4.995)
  RTI Simple Reaction Time Mean, change from baseline at day 28, Diff. of LS Means (SE) vs placebo: ^41.89 (23.130)
  RTI Simple Reaction Time Mean, change from baseline at day 28, LS Mean: ^14.30
  SWM Between Errors 4-8 Boxes, change from baseline at day 28, Diff. of LS Means (SE) vs placebo: ^0.06 (2.631)
  SWM Between Errors 4-8 Boxes, change from baseline at day 28, LS Mean: ^1.48
[2]; 50 mg
  CDR-SB Total Score, change from baseline at day 28, Diff. of LS Means (SE) vs placebo: ^0.51 (0.300)
  CDR-SB Total Score, change from baseline at day 28, LS Mean: ^0.54
  CDR-SB Total Score, change from baseline at day 28, Mean (SD): ^0.54 (1.082)
  MMSE Total Score, change from baseline at day 28, Diff. of LS Means (SE) vs placebo: ^-1.29 (0.880)
  MMSE Total Score, change from baseline at day 28, LS Mean: ^-0.73
  MMSE Total Score, change from baseline at day 28, Mean (SD): ^-0.75 (3.317)
  PAL Total Errors 6 Shapes Adjusted, change from baseline at day 28, Diff. of LS Means (SE) vs placebo: ^-1.44 (2.037)
  PAL Total Errors 6 Shapes Adjusted, change from baseline at day 28, LS Mean: ^0.57
  RBANS Total Scale, change from baseline at day 28, Diff. of LS Means (SE) vs placebo: ^-2.48 (2.705)
  RBANS Total Scale, change from baseline at day 28, LS Mean: ^1.97
  RBANS Total Scale, change from baseline at day 28, Mean (SD): ^1.88 (10.392)
  RTI Simple Reaction Time Mean, change from baseline at day 28, Diff. of LS Means (SE) vs placebo: ^33.19 (23.367)
  RTI Simple Reaction Time Mean, change from baseline at day 28, LS Mean: ^5.60
  SWM Between Errors 4-8 Boxes, change from baseline at day 28, Diff. of LS Means (SE) vs placebo: ^-0.48 (2.693)
  SWM Between Errors 4-8 Boxes, change from baseline at day 28, LS Mean: ^0.93
[2]; any treatment group
  RBANS total scale, MMSE total and CDR Sum of Boxes change from baseline at day 28: no meaningful change
[2]; atabecestat treatment groups
  CANTAB (PAL, RTI, SWM) changes from baseline at day 28: No meaningful changes
[3]
  incidence of SAE: no reported incidence of SAE
[3]; no changes from baseline > 30-ms
  changes in QTcF: no clinically significant changes
